Experimental data as given in patent US9550763B2, “Heterocyclic ring and carbocyclic derivative” (Shionogi & Co., Ltd., priority 2012, dated 2017).
pIC50: −log10 of the molar value.

These molecules were tested against human P2X3 receptor (Homo sapiens (Human), UniProt P56373) (assay: Evaluation of human P2X3 receptor inhibitory activity (Test Example 1-1, FDSS 3000, 96-well, 50 nM ATP)). Conditions: human P2X3 receptor in C6BU-1 cells; Test Example 1-1 (compounds I-001 to I-300).
human P2X3 receptor, sequence (P56373 whole entry): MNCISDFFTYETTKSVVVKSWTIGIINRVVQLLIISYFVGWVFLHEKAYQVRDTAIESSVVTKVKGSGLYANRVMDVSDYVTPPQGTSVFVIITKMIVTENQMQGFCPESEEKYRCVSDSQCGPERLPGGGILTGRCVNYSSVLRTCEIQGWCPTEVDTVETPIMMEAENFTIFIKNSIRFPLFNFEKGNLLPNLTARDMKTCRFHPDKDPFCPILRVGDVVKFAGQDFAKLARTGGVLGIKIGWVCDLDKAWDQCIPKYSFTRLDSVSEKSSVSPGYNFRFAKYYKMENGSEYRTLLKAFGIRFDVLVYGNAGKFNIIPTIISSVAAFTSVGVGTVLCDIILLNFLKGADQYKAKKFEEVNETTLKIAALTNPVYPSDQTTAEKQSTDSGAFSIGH
Assay type: cell-based
Summary of the method: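 C6BU-1 cells stably expressing human P2X3, loaded with 4 μM Fluo-3-AM (pH 7.5), preincubated 5 min with compound before 50 nM ATP challenge; fluorescence followed 4 min on FDSS 3000. IC50 derived from peak/baseline fluorescence ratio, no-compound as 0% and buffer-instead-of-ATP as 100% inhibition.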
With O=C(Nc1c[nH]/c(=N\c2ccc(Oc3ccon3)cc2)n(Cc2ccc(Cl)cc2)c1=O)C1CCNCC1 [Compound I-186] the pIC50 was 7.14.
CCCn1c(=O)cc(Nc2ccc(Oc3cccc(C#N)n3)c(C)n2)n(Cc2ccc(Cl)cc2)c1=O [Compound I-187] was tested, and the pIC50 was 8.40.
CCCn1c(=O)cc(Nc2ccc(Oc3cccc(C(=O)O)n3)c(C)n2)n(Cc2ccc(Cl)cc2)c1=O [Compound I-188] was tested, and the pIC50 was 8.22.
Molecule CCC(=O)N(CC)c1c[nH]/c(=N\c2ccc(Oc3cccc(C#N)n3)cc2)n(Cc2ccc(Cl)cc2)c1=O [Compound I-189] has a pIC50 of 7.92.
Cc1noc(-c2cn(Cc3ccc(Cl)cc3)/c(=N/c3ccc(Oc4cccc(F)n4)cc3)[nH]c2=O)n1 [Compound I-190, 1-(4-chlorobenzyl)-2-[4-(6-fluoro-2-pyridyloxy)phenylamino]-5-(3-methyl-1,2,4-oxadiazol-5-yl)pyrimidin-4(1H)-one] was tested, and the pIC50 was 8.22.
O=C(Nc1c[nH]/c(=N\c2ccc(Oc3ccon3)cc2)n(Cc2ccc(Cl)cc2)c1=O)C1CCOC1 (stereo not drawn) [Compound I-192] was tested, and the pIC50 was 8.22.
With CCC(=O)N(CC)c1c[nH]/c(=N\c2ccc(Oc3cccc(C(=O)O)n3)cc2)n(Cc2ccc(Cl)cc2)c1=O [Compound I-193] the pIC50 was 8.22.
O=c1c(-c2cccnc2O)c[nH]/c(=N\c2ccc(Oc3ccon3)cc2)n1Cc1ccc(Cl)cc1 [Compound I-194] was tested, and the pIC50 was 6.18.
Work on CN(C)C(=O)c1c[nH]/c(=N\c2ccc(Oc3cccc(F)n3)cc2)n(Cc2ccc(Cl)cc2)c1=O [Compound I-195] yielded a pIC50 of 7.15.
CCCn1c(=O)cc(Nc2ccc(Oc3cnc(C#N)nc3)cn2)n(Cc2ccc(Cl)cc2)c1=O [Compound I-196] showed a pIC50 of 7.43.
In the case of CC(=O)N(C)c1c[nH]/c(=N\c2ccc(Oc3cccc(C#N)n3)cc2)n(Cc2ccc(Cl)cc2)c1=O [Compound I-197], the pIC50 was 7.35.
Work on CCC(=O)N(C)c1c[nH]/c(=N\c2ccc(Oc3cccc(C#N)n3)cc2)n(Cc2ccc(Cl)cc2)c1=O [Compound I-198] yielded a pIC50 of 7.92.
With O=C(NC1CCOCC1)c1cn(Cc2ccc(Cl)cc2)c(Nc2ccc(Oc3ccncc3)cc2)nc1=O [Compound I-199] the pIC50 was 8.10.
In the case of NC(=O)c1ccc(Oc2ccc(Nc3nc(=O)c(C(=O)NC4CCOCC4)cn3Cc3ccc(Cl)cc3)cc2)cn1 [Compound I-200], the pIC50 was 8.00.
With CCCn1c(=O)cc(Nc2ccc(Oc3cnc(C(=O)O)nc3)cn2)n(Cc2ccc(Cl)cc2)c1=O [Compound I-201] the pIC50 was 7.02.
CCn1c(=O)cc(Nc2cc(C)c(Oc3cccc(C(=O)O)c3)cn2)n(Cc2ccc(Cl)cc2)c1=O [Compound I-203] showed a pIC50 of 6.47.
Molecule COc1ccc(-c2c[nH]/c(=N\c3ccc(Oc4ccon4)cc3)n(Cc3ccc(Cl)cc3)c2=O)cn1 [Compound I-204] has a pIC50 of 6.70.
For O=c1c(-c2ccc(O)nc2)c[nH]/c(=N\c2ccc(Oc3ccon3)cc2)n1Cc1ccc(Cl)cc1 [Compound I-205], the pIC50 was 6.82.
Work on CCOC(=O)c1c[nH]/c(=N\c2ccc(Oc3ccc(F)cn3)c(F)c2)n(Cc2ccc(Cl)cc2)c1=O [Compound I-206] yielded a pIC50 of 7.32.
For O=C(O)c1c[nH]/c(=N\c2ccc(Oc3ccc(F)cn3)c(F)c2)n(Cc2ccc(Cl)cc2)c1=O [Compound I-207], the pIC50 was 6.60.
NC(=O)c1c[nH]/c(=N\c2ccc(Oc3ccc(F)cn3)c(F)c2)n(Cc2ccc(Cl)cc2)c1=O [Compound I-208] was tested, and the pIC50 was 7.51.
With CN(C)C(=O)c1c[nH]/c(=N\c2ccc(Oc3cccc(C#N)n3)cc2)n(Cc2ccc(Cl)cc2)c1=O [Compound I-209] the pIC50 was 6.99.
For CC(=O)N(C)c1c[nH]/c(=N\c2ccc(Oc3cccc(C(=O)O)n3)cc2)n(Cc2ccc(Cl)cc2)c1=O [Compound I-210], the pIC50 was 7.77.
O=C(Nc1c[nH]/c(=N\c2ccc(Oc3ccon3)cc2)n(Cc2ccc(Cl)cc2)c1=O)C1CC(F)(F)C1 [Compound I-211] was tested, and the pIC50 was 7.82.
With O=C(Nc1c[nH]/c(=N\c2ccc(Oc3ccon3)cc2)n(Cc2ccc(Cl)cc2)c1=O)C1CCOC1 (stereo not drawn) [Compound I-212] the pIC50 was 7.96.
For O=C(Nc1c[nH]/c(=N\c2ccc(Oc3ccon3)cc2)n(Cc2ccc(Cl)cc2)c1=O)C1CCOC1 (stereo not drawn) [Compound I-213], the pIC50 was 7.57.
Work on O=C(Nc1c[nH]/c(=N\c2ccc(Oc3ccc(F)cn3)cc2)n(Cc2ccc(Cl)cc2)c1=O)C1COC1 [Compound I-214] yielded a pIC50 of 7.89.
N#Cc1cccc(Oc2ccc(Nc3nc(=O)c(C(=O)NC4CCOCC4)cn3Cc3ccc(Cl)cc3)cc2)n1 [Compound I-216] was tested, and the pIC50 was 8.22.
Molecule NC(=O)c1cccc(Oc2ccc(Nc3nc(=O)c(C(=O)NC4CCOCC4)cn3Cc3ccc(Cl)cc3)cc2)n1 [Compound I-217] has a pIC50 of 8.30.
Work on O=c1c(NC(=O)[C@H]2C[C@H](F)C2)c[nH]/c(=N\c2ccc(Oc3ccon3)cc2)n1Cc1ccc(Cl)cc1 [Compound I-218] yielded a pIC50 of 7.77.
O=c1c(NC(=O)[C@H]2C[C@@H](F)C2)c[nH]/c(=N\c2ccc(Oc3ccon3)cc2)n1Cc1ccc(Cl)cc1 [Compound I-219] gave a pIC50 of 7.85.
CN(C)C(=O)c1c[nH]/c(=N\c2ccc(Oc3cccc(C(N)=O)n3)cc2)n(Cc2ccc(Cl)cc2)c1=O [Compound I-220] gave a pIC50 of 6.75.
In the case of Cc1nsc(Oc2ccc(/N=c3\[nH]cc(C(=O)N(C)C)c(=O)n3Cc3ccc(Cl)cc3)cc2)n1 [Compound I-221], the pIC50 was 7.19.
With CN(C)C(=O)c1c[nH]/c(=N\c2ccc(Oc3cccc(C(=O)O)n3)cc2)n(Cc2ccc(Cl)cc2)c1=O [Compound I-222] the pIC50 was 7.33.
O=C(Nc1c[nH]/c(=N\c2ccc(Oc3ccon3)cc2)n(Cc2ccc(Cl)cc2)c1=O)c1ccno1 [Compound I-223] was tested, and the pIC50 was 7.11.
Cc1nsc(Oc2ccc(/N=c3\[nH]cc(NC(=O)C4CCOCC4)c(=O)n3Cc3ccc(Cl)cc3)cc2)n1 [Compound I-225] gave a pIC50 of 8.22.
Work on O=C(Nc1c[nH]/c(=N\c2ccc(Oc3ccon3)cc2)n(Cc2ccc(Cl)cc2)c1=O)c1ccon1 [Compound I-226] yielded a pIC50 of 6.68.
For N#Cc1cc(Oc2ccc(Nc3nc(=O)c(C(=O)NC4CCOCC4)cn3Cc3ccc(Cl)cc3)cc2)ccn1 [Compound I-227], the pIC50 was 8.22.
Work on N#Cc1ccc(Oc2ccc(Nc3nc(=O)c(C(=O)NC4CCOCC4)cn3Cc3ccc(Cl)cc3)cc2)nc1 [Compound I-228] yielded a pIC50 of 8.00.
N#Cc1ccc(Oc2ccc(Nc3nc(=O)c(C(=O)NC4CCOCC4)cn3Cc3ccc(Cl)cc3)cc2)cn1 [Compound I-229] gave a pIC50 of 8.15.
For O=C(Nc1c[nH]/c(=N\c2ccc(Oc3ccon3)cc2)n(Cc2ccc(Cl)cc2)c1=O)c1cc[nH]n1 [Compound I-231], the pIC50 was 6.41.
Work on Cn1cc(C(=O)Nc2c[nH]/c(=N\c3ccc(Oc4ccon4)cc3)n(Cc3ccc(Cl)cc3)c2=O)cn1 [Compound I-233] yielded a pIC50 of 6.63.
Molecule O=C(Nc1c[nH]/c(=N\c2ccc(Oc3ccon3)cc2)n(Cc2ccc(Cl)cc2)c1=O)c1cn[nH]c1 [Compound I-235] has a pIC50 of 6.65.
Molecule N#C/N=C(/Nc1c[nH]/c(=N\c2ccc(Oc3ccon3)cc2)n(Cc2ccc(Cl)cc2)c1=O)Oc1ccccc1 [Compound I-237] has a pIC50 of 6.66.
Molecule CCOC(=O)/N=C(\NC)Nc1c[nH]/c(=N\c2ccc(Oc3ccon3)cc2)n(Cc2ccc(Cl)cc2)c1=O [Compound I-238] has a pIC50 of 6.00.
For NC(=O)c1ccc(Oc2ccc(Nc3nc(=O)c(C(=O)NC4CCOCC4)cn3Cc3ccc(Cl)cc3)cc2)nc1 [Compound I-239], the pIC50 was 8.30.
For NC(=O)c1cc(Oc2ccc(Nc3nc(=O)c(C(=O)NC4CCOCC4)cn3Cc3ccc(Cl)cc3)cc2)ccn1 [Compound I-240], the pIC50 was 8.22.
In the case of CCC(=O)N(C)C1=CN/C(=N\c2ccc(Oc3cccc(C(=O)O)n3)cc2)N(Cc2ccc(Cl)cc2)C1 [Compound I-241], the pIC50 was 8.10.
